Source: US5739302A, “Manufacture and use of novel glycosides of catechol estrogens” (priority 1991, dated 1998)
Values after ≈ are worked out from the molar mass of the structure shown. Read-outs that look alike come from different tables or passages of the source.

Experiments:
[1] = Solubility in water; assay type: physicochemical
Method: For example, the volume of water required to dissolve 1 mg of various glycosides is as following; 2 to 3 ml for 17-glucoside, 2 ml for 17-maltoside, 0.7 ml for 2-glucoside, and 3 ml for 3-glucoside, while 1 mg of 2-hydroxyestradiol cannot be dissolved in 3 ml of water. Accordingly, the glycosides obtained in the present invention provide a way to prepare an injection containing the same.

[2] = system: rat liver homogenate; experiment: Inhibitory effect on the lipid peroxidation of rat liver homogenate (thiobarbituric acid method); assay type: biochemical; conditions: 10 μM; 4 hours at 37° C.
Method: (Inhibitory effect of 2-hydroxyestradiol 2-glucoside on the lipid peroxidation of rat liver homogenate)
A rat liver homogenate was prepared in 4 volume of 0.15M KCl .2-OHE2 2-Glu was dissolved in distilled water and 2-OHE2, in 1% DMSO, to give a final concentration of 1 mM. The reaction mixture contained the followings in a final volume of 2 ml; 1.98 ml of rat liver homogenate (10 mg protein/ml) and 10 μM either 2-PHE2 2-Glu or 2-OHE2. As blank tests, the same volume of distilled water or 1% DMSO was added in place of 2-OHE2 2-Glu or 2-OHE2. After incubation for 4 hours at 37° C., lipid peroxide level was determined by the thiobarbituric acid method.

[3] = system: rat brain homogenate; experiment: Inhibitory effect on the lipid peroxidation of rat brain homogenate (thiobarbituric acid method); assay type: biochemical; conditions: for amount of lipid peroxides in terms of malondialdehyde: 37° C.
Method: (Inhibitory effect of 2-hydroxyestradiol 2-glucoside on the lipid peroxidation of rat brain homogenate)
2-Hydroxyestradiol 2-(β-D-glucopyranoside) (2-OHE2 2-Glu) obtained according to the method of this invention (Example 16) was dissolved in water to give a concentration of 1 mM or 0.5 mM. The reaction mixture contains the followings in a final volume of 2 ml; 1.98 ml of rat brain homogenate (10 mg protein/ml) and 2-OHE2 2-Glu at a concentration of 5 μM or 10 μM. After incubation at 37° C., lipid peroxide level was determined by the thiobarbituric acid method.
Values in Table 2 indicate the amount of lipid peroxides (nmol/mg protein
in terms of malondialdehyde.

[4] = Acute toxicity (intraperitoneal injection); assay type: in vivo, mouse; conditions: mouse, in vivo, ip; male ddY mice, intraperitoneal; 2 weeks
Method: (§1) Male mice of ddY strain were received 2-OHE2 17-Glu or 2-OHE2 2-Glu by an intraperitoneal injection at doses of 250 mg, 500 mg, 750 mg, or 1000 mg/kg body weight.

[5] = system: Male mice of ddY strain; experiment: Acute toxicity (intraperitoneal injection); assay type: in vivo, mouse; conditions: 250, 500, 750 or 1000 mg/kg i.p.; observation period of 2 weeks
Method: as §1

[6] = system: low-density lipoprotein (LDL); experiment: Inhibitory effect on the lipid peroxidation of low-density lipoprotein (CuSO4-induced; methylene blue method); assay type: biochemical, rabbit (hypercholesterolemic); conditions: for amount of lipid peroxides: LDL + CuSO4, 5 nmol compound in 1 ml
Method: (Inhibitory effect of 2-hydroxyestradiol 17-glucoside on the lipid peroxidation of low-density lipoprotein)
Low-density lipoprotein (LDL) was prepared from hypercholesterolemic rabbit serum. 2-Hydroxyestradiol 17-(β-D-glucopyranoside) (2-OHE2 17-Glu) obtained according to the method of this invention (Example 4 ) was dissolved in distilled water and 2-hydroxyestradiol (2-OHE2) as a reference compound, in dimethylsulfoxide (DMSO), to give a final concentration of 500 μM. The reaction mixture contained the followings in a final volume of 1 ml: 500 μg of LDL; 5 nmol of CuSO4; and 5 nmol of either 2-OHE2 17-Glu or 2-OHE2. As blank tests, distilled water or DMSO was added in place of 2-OHE2 17-Glu or 2-OHE2. After incubation for a definite time at […], the amount of lipid hydroperoxides generated was determined by the methylene blue method.
Values in TABLE 1 indicate the amount of lipid peroxides (nmol/mg

[7] = system: red blood cells; experiment: Incorporation of glycosides of 2-hydroxyestradiol into red blood cells; assay type: in vitro ADME
Method: (§2) (Incorporation of glycosides of 2-hydroxyestradiol into red blood cells)
(§3) The reaction mixture contained 0.2 nmol of 2-OHE2, 2-OHE2 17-Glu, or 2-hydroxyestradiol 17-(β-maltoside) (2-OHE2 17-Mal, obtained in Example 5) in 0.1 ml of 0.2% DMSO-0.1% ascorbic acid in phosphate buffered saline (PBS) and 0.9 ml of suspension of red blood cells in PBS. After incubation at 37° C. for several intervals, the mixture was centrifuged and supernatant fraction was obtained, and then the amount of each glycoside of 2-hydroxyestradiol remained in the supernatant was determined by HPLC.
(§4) Values in Table 3 indicate residual amount (%) in the incubation medium.

[8] = as above; assay type: in vitro ADME; conditions: red blood cell suspension, 0.2 nmol compound, 37° C., read-out: residual amount in the incubation medium
Method: as §2, §3, §4

| SMILES | solubility [1] | solubility ([1]; water) | inhibition of the lipid peroxidation [2] | LD50 at 336 h [4] | abnormal symptoms (in words) [5] | survival (in words) [5] | amount of lipid peroxides ([6]; incubation 1 hr) | amount of lipid peroxides ([6]; incubation 2 hr) | amount of lipid peroxides ([6]; incubation 3 hr) | amount of lipid peroxides ([6]; incubation 4 hr) | incorporation into red blood cells (in words) [7] | further results |
| --- | --- | --- | --- | --- | --- | --- | --- | --- | --- | --- | --- | --- |
| C[C@]12CC[C@@H]3c4cc(O)c(O[C@@H]5O[C@H](CO)[C@@H](O)[C@H](O)[C@H]5O)cc4CC[C@H]3[C@@H]1CC[C@@H]2O [2-Hydroxyestradiol 3-(β-D-glucopyranoside)] | 3 mL | 333 µg/mL (≈ 740 µM) |  |  |  |  |  |  |  |  |  |  |
| C[C@]12CC[C@@H]3c4cc(O[C@@H]5O[C@H](CO)[C@@H](O)[C@H](O)[C@H]5O)c(O)cc4CC[C@H]3[C@@H]1CC[C@@H]2O [2-OHE2 2-Glu, 2-Hydroxyestradiol 2-(β-D-glucopyranoside)] | 0.5 to 1 mL | 1430 µg/mL (≈ 3170 µM) | 77% | > 100 mg/kg | no abnormal symptom was found | All mice survived |  |  |  |  |  | inhibition of the lipid peroxidation (in words) ([3]; 5 μM and 10 μM): strongly inhibited the lipid peroxidation in a concentration dependent manner; amount of lipid peroxides in terms of malondialdehyde ([3]; 5 μM, incubation 0 hr): 0.271 nmol/mg protein; amount of lipid peroxides in terms of malondialdehyde ([3]; 5 μM, incubation 1 hr): 1.124 nmol/mg protein; amount of lipid peroxides in terms of malondialdehyde ([3]; 5 μM, incubation 2 hr): 1.867 nmol/mg protein; amount of lipid peroxides in terms of malondialdehyde ([3]; 5 μM, incubation 4 hr): 3.167 nmol/mg protein; amount of lipid peroxides in terms of malondialdehyde ([3]; 10 μM, incubation 0 hr): 0.271 nmol/mg protein; amount of lipid peroxides in terms of malondialdehyde ([3]; 10 μM, incubation 1 hr): 0.905 nmol/mg protein; amount of lipid peroxides in terms of malondialdehyde ([3]; 10 μM, incubation 2 hr): 1.326 nmol/mg protein; amount of lipid peroxides in terms of malondialdehyde ([3]; 10 μM, incubation 4 hr): 1.534 nmol/mg protein |
| C[C@]12CC[C@@H]3c4cc(O)c(O)cc4CC[C@H]3[C@@H]1CC[C@@H]2O[C@@H]1O[C@H](CO)[C@@H](O)[C@H](O)[C@H]1O [2-OHE2 17-Glu, 2-Hydroxyestradiol 17-(β-D-glucopyranoside)] | 2 to 3 mL | 333 to 500 µg/mL (≈ 740 to 1110 µM) |  | > 100 mg/kg | no abnormal symptom was found | All mice survived | 8.93 nmol/mg protein | 19.48 nmol/mg protein | 24.76 nmol/mg protein | 32.17 nmol/mg protein | markedly retarded as compared with that of 2-OHE2 | inhibitory potency on LDL peroxidation (in words) ([6]; compared with 2-OHE2): the same to that of 2-OHE2; inhibition of the peroxidation of LDL (in words) ([6]; in words): clearly inhibited the peroxidation of LDL |
| C[C@]12CC[C@@H]3c4cc(O)c(O)cc4CC[C@H]3[C@@H]1CC[C@@H]2O[C@@H]1O[C@H](CO)[C@@H](O[C@H]2O[C@H](CO)[C@@H](O)[C@H](O)[C@H]2O)[C@H](O)[C@H]1O [2-OHE2 17-Mal, 2-hydroxyestradiol 17-(β-maltoside)] | 2 mL | 500 µg/mL (≈ 816 µM) |  |  |  |  |  |  |  |  | markedly retarded as compared with that of 2-OHE2 |  |
| C[C@]12CC[C@@H]3c4cc(O)c(O)cc4CC[C@H]3[C@@H]1CC[C@@H]2O [Example 2-OHE2, 2-hydroxyestradiol, reference compound] |  |  | 73% |  |  |  | 17.45 nmol/mg protein | 24.55 nmol/mg protein | 27.29 nmol/mg protein | 30.74 nmol/mg protein |  | solubility ([1]; per 1 mg, water, read-out: volume of water required to dissolve 1 mg): < 333 µg/mL; remaining at 0.5 min ([8]; 0.5 min): 4.4%; remaining at 1 min ([8]; 1.0 min): 4.4%; remaining at 2 min ([8]; 2.0 min): 3.7% |
